# In patent US20240132431A1, “METHOD FOR ALKYLATING ACIDIC FUNCTIONAL GROUP” (Chugai Seiyaku Kabushiki Kaisha, priority 2021, published 2024):
# Like-named read-outs stand apart in the source and are kept apart here.
# What was measured:
# [1] = biological target: T1, human Bcl-2 protein (Homo sapiens, UniProt P10415); experiment: Binding evaluation of compounds to Bcl-2 by surface plasmon resonance (SPR); conditions: for equilibrium dissociation constant KD compared to compound B2Q045-01: binding to Bcl-2
# T1 construct: purchased Novus Biologicals
# Description: In order to analyze the binding affinity of the compounds shown in [Table AK-O1] and synthesized in Example 8 to Bcl-2, the surface plasmon resonance method was used. Biacore T200 (GE Healthcare) was used as the apparatus, and HBS (10 mM HEPES-NaOH, 150 mM NaCl, pH 7.4) to which 1 mM DTT, 3 mM EDTA, 0.01% Tween 20, and 4% DMSO had been added was used as the running buffer. The human Bcl-2 protein (Novus Biologicals) was biotinylated using EZ-Link Sulfo-NHS-LC-LC-biotin (Thermofisher scientific) and immobilized on the surface of Sensor Chip SA (GE Healthcare). Thereafter, compound solutions of multiple concentrations and the running buffer (blank) were added to the Bcl-2 immobilized surface to obtain the binding response of the compounds. The measurement was carried out at 15° C.
# [2] = biological target: T2, Bcl-2 protein (Recombinant Human Bcl-2 Protein) (Homo sapiens, UniProt P10415); experiment: Binding evaluation of mixture library compounds to Bcl-2 using AS-MS (affinity selection mass spectrometry); conditions: for ASMS ratio (%) n = 1: replicate n = 1; for ASMS ratio (%) n = 1 / ASMS ratio (%) n = 2: ASMS Ratio(%)=(A−C)/B×100; for ASMS ratio (%) n = 2: replicate n = 2
# T2 construct: purchased Novus NBP2-34889
# In short: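 ASMS Ratio (%) was calculated as (A−C)/B×100, where A is the protein sample after SEC, B the protein-free sample without SEC and C the protein-free sample after SEC. Each compound was at […] in a 1200-member pool with 20 μM Bcl-2, incubated 1 h at 23° C.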
# [3] = Biacore T200, biotinylated human Bcl-2 immobilized on Sensor Chip SA, 15° C., compounds found by AS-MS evaluation of synthesized library
# [4] = first value in parentheses, (A−C)/B×100, 1200-compound mixture, Bcl-2 20 μM
# [5] = second value in parentheses, (A−C)/B×100, 1200-compound mixture, Bcl-2 20 μM
# [6] = Biacore T200, 15° C., compounds synthesized before performing library synthesis
# [7] = binding to Bcl-2, compounds evaluated before library synthesis, read-out: KD
# [8] = Biacore T200, biotinylated human Bcl-2 immobilized on Sensor Chip SA, 15° C., compounds found by AS-MS evaluation of synthesized library, read-out: Equilibrium dissociation constant KD
# [9] = AS-MS, mixture of 1200 compounds, Bcl-2
# [10] = AS-MS on the mixture of 1200 library compounds
# T1 sequence (P10415 whole entry): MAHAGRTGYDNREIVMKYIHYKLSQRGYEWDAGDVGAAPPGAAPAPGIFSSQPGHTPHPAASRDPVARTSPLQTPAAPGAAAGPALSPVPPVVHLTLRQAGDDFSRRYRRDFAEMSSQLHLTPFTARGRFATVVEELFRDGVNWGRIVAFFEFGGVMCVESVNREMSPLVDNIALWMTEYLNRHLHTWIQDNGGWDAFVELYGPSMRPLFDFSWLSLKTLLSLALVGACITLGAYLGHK
# T2 sequence (P10415 whole entry): as above
structure (smiles),measurement,setting,value
"CCOc1cncc(-c2ccccc2CCC(=O)N2CCN(c3ccc(C(=O)NS(=O)(=O)c4ccc(NCCSc5ccccc5)c([N+](=O)[O-])c4)nn3)CC2)c1 [B2Q012-01, 6-[4-[3-[2-(5-ethoxypyridin-3-yl)phenyl]propanoyl]piperazin-1-yl]-N-[3-nitro-4-(2-phenylsulfanylethylamino)phenyl]sulfonylpyridazine-3-carboxamide]",Equilibrium dissociation constant KD,[1]; [3],Bound
same,ASMS ratio (%) n = 1,"[2]; AS-MS, mixture library, Bcl-2",21.4%
same,ASMS ratio (%) n = 2,"[2]; AS-MS, mixture library, Bcl-2",22.5%
same,ASMS ratio (%),[2]; [4],21.4%
same,ASMS ratio (%),[2]; [5],22.5%
"CCOc1cccc(-c2ccccc2CN2CCN(c3ccc(C(=O)NS(=O)(=O)c4ccc(NCCSc5ccccc5)c(C(F)(F)F)c4)cc3)CC2)c1 [B2R045-01, 4-[4-[[2-(3-ethoxyphenyl)phenyl]methyl]piperazin-1-yl]-N-[4-(2-phenylsulfanylethylamino)-3-(trifluoromethyl)phenyl]sulfonylbenzamide]",Equilibrium dissociation constant KD,[1]; [6],Bound
same,Kd,[1]; [7],> 20000 nM
same,ASMS ratio (%),[2]; n = 1,4.8%
same,ASMS ratio (%),[2]; n = 2,−3.4%
"CCOc1cccc(-c2ccc(CN3CCN(c4ccc(C(=O)NS(=O)(=O)c5ccc(NCCSc6ccccc6)c([N+](=O)[O-])c5)cc4)CC3)cc2C)c1 [B2Q047-01, 4-[4-[[4-(3-ethoxyphenyl)-3-methylphenyl]methyl]piperazin-1-yl]-N-[3-nitro-4-(2-phenylsulfanylethylamino)phenyl]sulfonylbenzamide]",Kd,[1]; [8],700 nM
same,equilibrium dissociation constant KD compared to compound B2Q045-01,[1],smaller equilibrium dissociation constants KD
same,ASMS ratio (%) n = 1,"[2]; AS-MS, mixture library, Bcl-2",142.5%
same,ASMS ratio (%) n = 2,"[2]; AS-MS, mixture library, Bcl-2",326.4%
same,ASMS ratio (%),[2]; [4],142.5%
same,ASMS ratio (%),[2]; [5],326.4%
"CCOc1cncc(-c2ccccc2CN2CCN(c3ccc(C(=O)NS(=O)(=O)c4ccc(NCCSc5ccccc5)c(C(F)(F)F)c4)cc3)CC2)c1 [B2R046-01, 4-[4-[[2-(5-Ethoxypyridin-3-yl)phenyl]methyl]piperazin-1-yl]-N-[4-(2-phenylsulfanylethylamino)-3-(trifluoromethyl)phenyl]sulfonylbenzamide]",Equilibrium dissociation constant KD,[1]; [6],Bound
same,Kd,[1]; [7],> 20000 nM
same,ASMS ratio (%),[2]; n = 1,−0.2%
same,ASMS ratio (%),[2]; n = 2,0.0%
"CCOc1cncc(-c2ccc(CN3CCN(c4ccc(C(=O)NS(=O)(=O)c5ccc(NCCSc6ccccc6)c([N+](=O)[O-])c5)cc4)CC3)cc2C)c1 [B2Q048-01, 4-[4-[[4-(5-ethoxypyridin-3-yl)-3-methylphenyl]methyl]piperazin-1-yl]-N-[3-nitro-4-(2-phenylsulfanylethylamino)phenyl]sulfonylbenzamide]",Kd,[1]; [8],480 nM
same,equilibrium dissociation constant KD compared to compound B2Q045-01,[1],smaller equilibrium dissociation constants KD
same,ASMS ratio (%) n = 1,"[2]; AS-MS, mixture library, Bcl-2",61.6%
same,ASMS ratio (%) n = 2,"[2]; AS-MS, mixture library, Bcl-2",90.8%
same,ASMS ratio (%),[2]; [4],61.6%
same,ASMS ratio (%),[2]; [5],90.8%
"CCOc1cncc(-c2ccc(C(C)N3CCN(c4ccc(C(=O)NS(=O)(=O)c5ccc(NCCSc6ccccc6)c([N+](=O)[O-])c5)cc4)CC3)cc2)c1 (stereo not shown) [B2Q098-01, 4-[4-[1-[4-(5-ethoxypyridin-3-yl)phenyl]ethyl]piperazin-1-yl]-N-[3-nitro-4-(2-phenylsulfanylethylamino)phenyl]sulfonylbenzamide]",Equilibrium dissociation constant KD,[1]; [3],Binding not observed
same,ASMS ratio (%) n = 1,"[2]; AS-MS, mixture library, Bcl-2",61.6%
same,ASMS ratio (%) n = 2,"[2]; AS-MS, mixture library, Bcl-2",90.8%
same,ASMS ratio (%),[2]; [4],61.6%
same,ASMS ratio (%),[2]; [5],90.8%
"CCOc1cccc(-c2cc(CN3CCN(c4ccc(C(=O)NS(=O)(=O)CC56CC7CC(CC(C7)C5)C6)nn4)CC3)cc(OC(C)C)c2)c1 [B2A083-01, N-(1-Adamantylmethylsulfonyl)-6-[4-[[3-(3-ethoxyphenyl)-5-propan-2-yloxyphenyl]methyl]piperazin-1-yl]pyridazine-3-carboxamide]",ASMS ratio (%) n = 1,"[2]; AS-MS, mixture library, Bcl-2",10.3%
same,ASMS ratio (%) n = 2,"[2]; AS-MS, mixture library, Bcl-2",0.0%
CCCNC(=O)c1ccc(N2CCN(Cc3ccccc3C#Cc3cccc(OCC)c3)CC2)cc1 [B1M052-01],ASMS ratio (%) n = 1,[2]; [9],27.6%
same,ASMS ratio (%) n = 2,[2]; [9],20.2%
"CCOc1cccc(-c2ccc(CN3CCN(c4ccc(C(=O)N(CC)CC)cc4)CC3)c(CC)c2)c1 [B4J049-01, 4-[4-[[4-(3-Ethoxyphenyl)-2-ethylphenyl]methyl]piperazin-1-yl]-N,N-diethylbenzamide]",ASMS ratio (%) n = 1,[2]; [10],7.1%
same,ASMS ratio (%) n = 2,[2]; [10],−1.4%
"CCOc1cncc(-c2ccc(CN3CCN(c4ccc(C(=O)NCC56CC7CC(CC(C7)C5)C6)nn4)CC3)cc2F)c1 [B1A078-01, N-(1-Adamantylmethyl)-6-[4-[[4-(5-ethoxypyridin-3-yl)-3-fluorophenyl]methyl]piperazin-1-yl]pyridazine-3-carboxamide]",ASMS ratio (%) n = 1,[2]; [9],4.7%
same,ASMS ratio (%) n = 2,[2]; [9],1.2%
"CCOc1cncc(-c2csc(C(=O)N3CCN(c4ccc(C(=O)N(CC)CC)nn4)CC3)c2)c1 [B4J002-01, 6-[4-[4-(5-Ethoxypyridin-3-yl)thiophene-2-carbonyl]piperazin-1-yl]-N,N-diethylpyridazine-3-carboxamide]",ASMS ratio (%) n = 1,[2]; [10],−2.7%
same,ASMS ratio (%) n = 2,[2]; [10],2.1%
"CCOc1cccc(-c2cc(OC)c(CN3CCN(c4ccc(C(=O)NS(=O)(=O)c5ccc(NCCSc6ccccc6)c([N+](=O)[O-])c5)cc4)CC3)c(OC)c2)c1 [B2Q059-01, 4-[4-[[4-(3-Ethoxyphenyl)-2,6-dimethoxyphenyl]methyl]piperazin-1-yl]-N-[3-nitro-4-(2-phenylsulfanylethylamino)phenyl]sulfonylbenzamide]",ASMS ratio (%) n = 1,"[2]; AS-MS, mixture library, Bcl-2",9.8%
same,ASMS ratio (%) n = 2,"[2]; AS-MS, mixture library, Bcl-2",7.0%
"CCOc1cncc(-c2cc(CN3CCN(c4ccc(C(=O)NS(=O)(=O)CC56CC7CC(CC(C7)C5)C6)nn4)CC3)cc(OC(C)C)c2)c1 [B2A084-01, N-(1-Adamantylmethylsulfonyl)-6-[4-[[3-(5-ethoxypyridin-3-yl)-5-propan-2-yloxyphenyl]methyl]piperazin-1-yl]pyridazine-3-carboxamide]",ASMS ratio (%) n = 1,"[2]; AS-MS, mixture library, Bcl-2",13.3%
same,ASMS ratio (%) n = 2,"[2]; AS-MS, mixture library, Bcl-2",11.9%
"CCOc1cncc(-c2cc(C(=O)N3CCN(c4ccc(C(=O)NS(=O)(=O)c5ccc(NCCSc6ccccc6)c(C(F)(F)F)c5)nn4)CC3)cc(C(F)(F)F)c2)c1 [B2R018-01, 6-[4-[3-(5-Ethoxypyridin-3-yl)-5-(trifluoromethyl)benzoyl]piperazin-1-yl]-N-[4-(2-phenylsulfanylethylamino)-3-(trifluoromethyl)phenyl]sulfonylpyridazine-3-carboxamide]",ASMS ratio (%),[2]; n = 1,5.1%
same,ASMS ratio (%),[2]; n = 2,7.8%
"CCOc1cncc(-c2ccc(CN3CCN(c4ccc(C(=O)Nc5ccc(OC)cc5)cc4)CC3)cc2F)c1 [B1O052-01, 4-[4-[[4-(5-Ethoxypyridin-3-yl)-3-fluorophenyl]methyl]piperazin-1-yl]-N-(4-methoxyphenyl)benzamide]",ASMS ratio (%) n = 1,[2]; [10],1.6%
same,ASMS ratio (%) n = 2,[2]; [10],0.4%
CCOc1cccc(-c2ccccc2CN2CCN(c3ccc(C(=O)N(CC)CC)nn3)CC2)c1 [B4J071-01],ASMS ratio (%) n = 1,"[2]; AS-MS, mixture library, Bcl-2",0.4%
same,ASMS ratio (%) n = 2,"[2]; AS-MS, mixture library, Bcl-2",−0.5%
"CCOc1cccc(-c2cc(CN3CCN(c4ccc(C(=O)NS(=O)(=O)CCC(F)(F)F)nn4)CC3)cc(OCC)c2)c1 [B2N081-01, 6-[4-[[3-Ethoxy-5-(3-ethoxyphenyl)phenyl]methyl]piperazin-1-yl]-N-(3,3,3-trifluoropropylsulfonyl)pyridazine-3-carboxamide]",ASMS ratio (%),[2]; n = 1,0.0%
same,ASMS ratio (%),[2]; n = 2,0.0%
